Results as given in PubChem BioAssay AID2060899 (Molecular Pharmacology Branch, DTP, NCI, 2025).

System: 565726-208-R1-J5-PDC complex spheroids, growth inhibition
Assay: Anticancer human tumor 565726-208-R1-J5-PDC patient-derived pancreatic adenocarcinoma cell line growth inhibition [RAS]
Details: for IC50: curve of first compound; for viability, T/C: stronger effect = lower value; active = viability on the fitted dose curve at most 10% of control; inactive = the rest
Method in brief: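 Tumour cells grown as complex spheroids with HUVEC endothelial cells and mesenchymal stem cells, treated with RAS pathway inhibitor combinations. Each agent spans half-log steps from near clinical Cmax, or 10 microM where Cmax is unknown.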

[1] = second compound 0.000949 µM, first compound 0.0316 µM
[2] = second compound 0.000949 µM, first compound 0.1 µM
[3] = second compound 0.000949 µM, first compound 0.316 µM
[4] = second compound 0.000949 µM, first compound 1 µM
[5] = second compound 0.000949 µM, first compound 3.16 µM
[6] = second compound 0.000949 µM, first compound 10 µM
[7] = second compound 0.003 µM, first compound 0.0316 µM
[8] = second compound 0.003 µM, first compound 0.1 µM
[9] = second compound 0.003 µM, first compound 0.316 µM
[10] = second compound 0.003 µM, first compound 1 µM
[11] = second compound 0.003 µM, first compound 3.16 µM
[12] = second compound 0.003 µM, first compound 10 µM
[13] = second compound 0.00949 µM, first compound 0.0316 µM
[14] = second compound 0.00949 µM, first compound 0.1 µM
[15] = second compound 0.00949 µM, first compound 0.316 µM
[16] = second compound 0.00949 µM, first compound 1 µM
[17] = second compound 0.00949 µM, first compound 3.16 µM
[18] = second compound 0.00949 µM, first compound 10 µM
[19] = second compound 0.03 µM, first compound 0.0316 µM
[20] = second compound 0.03 µM, first compound 0.1 µM
[21] = second compound 0.03 µM, first compound 0.316 µM
[22] = second compound 0.03 µM, first compound 1 µM
[23] = second compound 0.03 µM, first compound 3.16 µM
[24] = second compound 0.03 µM, first compound 10 µM
[25] = second compound 0.0949 µM, first compound 0.0316 µM
[26] = second compound 0.0949 µM, first compound 0.1 µM
[27] = second compound 0.0949 µM, first compound 0.316 µM
[28] = second compound 0.0949 µM, first compound 1 µM
[29] = second compound 0.0949 µM, first compound 3.16 µM
[30] = second compound 0.0949 µM, first compound 10 µM
[31] = second compound 0.3 µM, first compound 0.0316 µM
[32] = second compound 0.3 µM, first compound 0.1 µM
[33] = second compound 0.3 µM, first compound 0.316 µM
[34] = second compound 0.3 µM, first compound 1 µM
[35] = second compound 0.3 µM, first compound 3.16 µM
[36] = second compound 0.3 µM, first compound 10 µM
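Also: spheroids exposed to compounds for seven days before readout.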
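For viability, T/C in this document: 100% = DMSO vehicle control viability.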

CC1(O)CCCC1n1c(=O)c(C(F)F)cc2cnc(NC3CCN(S(C)(=O)=O)CC3)nc21 (stereo not given) + CCn1c(-c2cc(N3CCN(C)CC3)cnc2C(C)OC)c2c3cc(ccc31)-c1csc(n1)CC(NC(=O)C1CC1C)C(=O)N1CCCC(N1)C(=O)OCC(C)(C)C2
inactive: viability, T/C [1] 58% | viability, T/C [2] 46.6% | viability, T/C [3] 47.6% | viability, T/C [4] 50.4% | viability, T/C [5] 33.1% | viability, T/C [7] 48.5% | viability, T/C [8] 45.7% | viability, T/C [9] 43.9% | viability, T/C [10] 37.1% | viability, T/C [11] 26.5% | viability, T/C [13] 41.4% | viability, T/C [14] 36.7% | viability, T/C [15] 37.6% | viability, T/C [16] 31.7% | viability, T/C [17] 25% | viability, T/C [19] 34.2% | viability, T/C [20] 29.8% | viability, T/C [21] 31.3% | viability, T/C [22] 31.2% | viability, T/C [23] 17.3% | viability, T/C [25] 25.7% | viability, T/C [26] 25.4% | viability, T/C [27] 26% | viability, T/C [28] 24.2% | viability, T/C [29] 15.3% | viability, T/C [31] 19.9% | viability, T/C [32] 25.7% | viability, T/C [33] 22% | viability, T/C [34] 24.2% | viability, T/C [35] 14.6%
1010 nM: IC50 (second compound 0.000949 µM)
< 31.6 nM: IC50 (second compound 0.003 µM) | IC50 (second compound 0.00949 µM) | IC50 (second compound 0.03 µM) | IC50 (second compound 0.0949 µM) | IC50 (second compound 0.3 µM)
active: viability, T/C [6] 3.21% | viability, T/C [12] 2.82% | viability, T/C [18] 3.34% | viability, T/C [24] 3.06% | viability, T/C [30] 2.88% | viability, T/C [36] 3.06%

CCC(CC)c1cc(NC2CCC(N)C2)n2nccc2n1 (stereo not given) + CCn1c(-c2cc(N3CCN(C)CC3)cnc2C(C)OC)c2c3cc(ccc31)-c1csc(n1)CC(NC(=O)C1CC1C)C(=O)N1CCCC(N1)C(=O)OCC(C)(C)C2
active: viability, T/C [5] 0.45% | viability, T/C [6] 1.67% | viability, T/C [11] 0.47% | viability, T/C [12] 1.59% | viability, T/C [17] 0.24% | viability, T/C [18] 2.02% | viability, T/C [23] 0.4% | viability, T/C [24] 1.85% | viability, T/C [29] 0.44% | viability, T/C [30] 1.98% | viability, T/C [35] 0.5% | viability, T/C [36] 1.9%
< 31.6 nM: IC50 (second compound 0.00949 µM) | IC50 (second compound 0.03 µM) | IC50 (second compound 0.0949 µM) | IC50 (second compound 0.3 µM)
507 nM: IC50 (second compound 0.000949 µM)
inactive: viability, T/C [1] 61.1% | viability, T/C [2] 60% | viability, T/C [3] 65.7% | viability, T/C [4] 32.4% | viability, T/C [7] 56.6% | viability, T/C [8] 51.5% | viability, T/C [9] 50% | viability, T/C [10] 27.7% | viability, T/C [13] 47.2% | viability, T/C [14] 38.9% | viability, T/C [15] 34% | viability, T/C [16] 24.6% | viability, T/C [19] 31.3% | viability, T/C [20] 36.5% | viability, T/C [21] 31% | viability, T/C [22] 20.2% | viability, T/C [25] 27.4% | viability, T/C [26] 27% | viability, T/C [27] 24.2% | viability, T/C [28] 16.8% | viability, T/C [31] 23.5% | viability, T/C [32] 27.1% | viability, T/C [33] 23.1% | viability, T/C [34] 13.9%
340 nM: IC50 (second compound 0.003 µM)

CCN1CCN(Cc2ccc(Nc3ncc(F)c(-c4cc(F)c5nc(C)n(C(C)C)c5c4)n3)nc2)CC1 + CCn1c(-c2cc(N3CCN(C)CC3)cnc2C(C)OC)c2c3cc(ccc31)-c1csc(n1)CC(NC(=O)C1CC1C)C(=O)N1CCCC(N1)C(=O)OCC(C)(C)C2
72.8 nM: IC50 (second compound 0.000949 µM)
inactive: viability, T/C (second compound 0.000949 µM, first compound 0.00316 µM) 57.7% | viability, T/C (second compound 0.000949 µM, first compound 0.01 µM) 57.9% | viability, T/C [1] 57% | viability, T/C [2] 47.2% | viability, T/C [3] 35.4% | viability, T/C [4] 31.6% | viability, T/C (second compound 0.003 µM, first compound 0.00316 µM) 51.7% | viability, T/C (second compound 0.003 µM, first compound 0.01 µM) 41.4% | viability, T/C [7] 51.7% | viability, T/C [8] 35.5% | viability, T/C [9] 35% | viability, T/C [10] 23.9% | viability, T/C (second compound 0.00949 µM, first compound 0.00316 µM) 41.4% | viability, T/C (second compound 0.00949 µM, first compound 0.01 µM) 41.4% | viability, T/C [13] 31.1% | viability, T/C [14] 32.4% | viability, T/C [15] 22.3% | viability, T/C [16] 18.8% | viability, T/C (second compound 0.03 µM, first compound 0.00316 µM) 33.2% | viability, T/C (second compound 0.03 µM, first compound 0.01 µM) 29.2% | viability, T/C [19] 28.4% | viability, T/C [20] 25.5% | viability, T/C [21] 22.7% | viability, T/C [22] 18.8% | viability, T/C (second compound 0.0949 µM, first compound 0.00316 µM) 25.1% | viability, T/C (second compound 0.0949 µM, first compound 0.01 µM) 23.8% | viability, T/C [25] 22% | viability, T/C [26] 21.1% | viability, T/C [27] 19.4% | viability, T/C [28] 15.7% | viability, T/C (second compound 0.3 µM, first compound 0.00316 µM) 24.1% | viability, T/C (second compound 0.3 µM, first compound 0.01 µM) 23.3% | viability, T/C [31] 20.1% | viability, T/C [32] 18.8% | viability, T/C [33] 18% | viability, T/C [34] 15.6%
< 3.16 nM: IC50 (second compound 0.003 µM) | IC50 (second compound 0.00949 µM) | IC50 (second compound 0.03 µM) | IC50 (second compound 0.0949 µM) | IC50 (second compound 0.3 µM)

Cc1nc(N2CCC3(CC2)COC(C)C3N)c(CO)nc1Sc1ccnc(N)c1Cl (stereo not given) + CCn1c(-c2cc(N3CCN(C)CC3)cnc2C(C)OC)c2c3cc(ccc31)-c1csc(n1)CC(NC(=O)C1CC1C)C(=O)N1CCCC(N1)C(=O)OCC(C)(C)C2
38.7 nM: IC50 (second compound 0.003 µM)
inactive: viability, T/C [1] 63.1% | viability, T/C [2] 53.6% | viability, T/C [3] 48.3% | viability, T/C [4] 39.5% | viability, T/C [5] 33% | viability, T/C [6] 28% | viability, T/C [7] 51.3% | viability, T/C [8] 43.4% | viability, T/C [9] 34.3% | viability, T/C [10] 27.6% | viability, T/C [11] 29.1% | viability, T/C [12] 22% | viability, T/C [13] 40.5% | viability, T/C [14] 34.8% | viability, T/C [15] 26.1% | viability, T/C [16] 22.2% | viability, T/C [17] 20.9% | viability, T/C [18] 17.1% | viability, T/C [19] 29.1% | viability, T/C [20] 28.4% | viability, T/C [21] 22.2% | viability, T/C [22] 18% | viability, T/C [23] 19.8% | viability, T/C [24] 16.9% | viability, T/C [25] 22.9% | viability, T/C [26] 21.2% | viability, T/C [27] 20.1% | viability, T/C [28] 15.9% | viability, T/C [29] 18.3% | viability, T/C [30] 17.2% | viability, T/C [31] 24.4% | viability, T/C [32] 20% | viability, T/C [33] 17% | viability, T/C [34] 13.8% | viability, T/C [35] 16.2% | viability, T/C [36] 15.5%
204 nM: IC50 (second compound 0.000949 µM)
< 31.6 nM: IC50 (second compound 0.00949 µM) | IC50 (second compound 0.03 µM) | IC50 (second compound 0.0949 µM) | IC50 (second compound 0.3 µM)

NC1c2ccccc2OC12CCN(c1cnc3c(N4CCCc5ncccc54)n[nH]c3n1)CC2 (stereo not given) + CCn1c(-c2cc(N3CCN(C)CC3)cnc2C(C)OC)c2c3cc(ccc31)-c1csc(n1)CC(NC(=O)C1CC1C)C(=O)N1CCCC(N1)C(=O)OCC(C)(C)C2
< 31.6 nM: IC50 (second compound 0.003 µM) | IC50 (second compound 0.00949 µM) | IC50 (second compound 0.03 µM) | IC50 (second compound 0.0949 µM) | IC50 (second compound 0.3 µM)
45 nM: IC50 (second compound 0.000949 µM)
inactive: viability, T/C [1] 53.3% | viability, T/C [2] 42.6% | viability, T/C [3] 24.9% | viability, T/C [4] 23.5% | viability, T/C [5] 17.5% | viability, T/C [6] 21.3% | viability, T/C [7] 36.7% | viability, T/C [8] 27.4% | viability, T/C [9] 19.8% | viability, T/C [10] 14.2% | viability, T/C [11] 16.9% | viability, T/C [12] 16.4% | viability, T/C [13] 28.7% | viability, T/C [14] 21% | viability, T/C [15] 16.8% | viability, T/C [16] 13.7% | viability, T/C [17] 14.5% | viability, T/C [18] 14% | viability, T/C [19] 21.4% | viability, T/C [20] 18% | viability, T/C [21] 13.5% | viability, T/C [22] 13% | viability, T/C [23] 12.9% | viability, T/C [24] 14.5% | viability, T/C [25] 19.4% | viability, T/C [26] 17% | viability, T/C [27] 15.5% | viability, T/C [28] 13.7% | viability, T/C [29] 11.8% | viability, T/C [30] 13.9% | viability, T/C [31] 17.5% | viability, T/C [32] 13.5% | viability, T/C [33] 13.6% | viability, T/C [34] 13.1% | viability, T/C [35] 12% | viability, T/C [36] 13.8%
